Laboratory results: patent publication US11484511B2, “Pharmaceutical composition comprising THA as effective ingredient for treatment of prostate cancer” (KOREA UNITED PHARM. INC., priority 2018, dated 2022)
Entries after “also recorded” stand apart in the source; their conditions may differ.

What was measured:
Format in all cases: cell-based
[1] = test system: PC3 cells; assay: Real-time cell proliferation analysis (INCUCYTE ZOOM); conditions: THA 3, 10, 30 μM, BI2536 1-100 nM, PPG 3-100 μM, 68 hours
Experimental: (§1) LnCaP cells, PC3 cells which are androgen receptor (AR)-negative cells, and C4-2 cells showing castration resistance were cultured using an RPMI-1640 medium (Hyclone, Logan, Utah, USA) containing 10% fetal bovine serum (FBS) (Hyclone, Logan, Utah, USA) and 1% penicillin/streptomycin.
(§2) In order to measure cell proliferation, cells were plated onto a 96-well dish (5×10^3 cells/well). After treatment with a drug, the number of live cells was measured at 4-hour intervals using an INCUCYTE™ ZOOM Live Cell Analysis System (Essen Bioscience, Ann Arbor, Mich., USA).
(§3) In order to comparatively observe the cell proliferation inhibitory effects after treatment of prostate cancer cells with THA, a 1 M solution was prepared by diluting 0.168 g of THA (molecular weight: 168.15) with 1 ml DMSO. After the prostate cancer cell lines (LnCaP, PC3, and C4-2) cultured by the method in Example 1-2 were treated with THA (3, 10, and 30 μM), PLK1 inhibitor BI2536 (1, 5, 10, 50, and 100 nM), and purpurogallin (PPG) (3, 10, 30, and 100 μM), the cell proliferation inhibitory effects were comparatively observed by the real-time cell proliferation analysis method for 68 hours according to Example 1-4 during.

[2] = test system: LnCaP cells; assay: as above; conditions: PPG 3-100 μM, 68 hours
Experimental: as §1, §2, §3

[3] = test system: C4-2 cells; assay: as above; conditions: THA 3, 10, 30 μM, BI2536 1-100 nM, PPG 3-100 μM, 68 hours
Experimental: as §1, §2, §3

[4] = test system: PC3 cells; assay: Cell cycle analysis (PI / PHH3 flow cytometry); conditions: 30 μM THA, 5 nM BI2536, 24 hours
Experimental: In order to measure the cell cycle distribution, cells were plated onto a 100 mm dish (5×10^5 cells/well). The cells were fixed with 4° C. PBS, refrigerated in 70% EtOH at 4° C., and cultured for 24 hours. After the 70% EtOH was removed, the PHH3 antibody was treated with a lysing solution composed of 1% bovine serum albumin/0.5% Triton X-100/0.2 mg/ml EDTA to a final concentration of 1:50, and then stained at 37° C. for 15 minutes. Thereafter, the lysing solution was removed, and staining was performed again at 37° C. for 15 minutes using propidium iodide (PI)/Triton X-100/DNAse-free RNAse A. Next, 20,000 cells per experimental group were analyzed using the FACSCALIBUR™ (flow cytometer from BD Biosciences, CA, USA) machine.
PLK1 is a representative G2/M cell cycle regulatory […], and in order to confirm the effect of blocking the cell cycle of prostate cancer cells according to the treatment with THA, the PC3 cells cultured by the method in Example 1-2 were plated onto a 6-well plate, and then 12 hours later, the cells were treated with 30 μM THA and 5 nM BI2536 for 24 hours. Thereafter, changes in the cell distribution of each of the sub-G1, S, and G2/M phases and the proportion of PH3-positive cells (M phase marker) were observed by the method in Example 1-6.

[5] = test system: PC3 cells; assay: Cleaved caspase-3 (CC3) expression by immunochemical analysis; conditions: for induction of apoptosis: 30 μM THA or 5 nM BI2536, 48 hours
Experimental: (§4) Sodium dodecyl sulfate-polyacrylamide gel electrophoresis (SDS-PAGE) was performed using a gel electrophoresis apparatus (Mighty Small SE250, Hoefer Scientific Instruments, San Francisco). After a cell lysate fraction was diluted in a sample dilution buffer solution [63 mM Tris (pH 6.8), 10% glycerol, 2% SDS, 0.0013% bromophenol blue, and 5% β-mercaptoethanol], electrophoresis was performed in an electrode buffer solution (15 g of Tris, 72 g of glycerin, and 5 g of SDS were contained in a 1 L solution) using 8 to 12% gel. Proteins were electrophoretically transferred from the gel to a nitrocellulose membrane at 190 mAmps for 70 minutes in a transfer buffer solution (25 mM Tris, 192 mM glycerin, and 20% v/v methanol (pH 8.3)) using a transfer electrophoresis apparatus. After a primary antibody was reacted with the nitrocellulose membrane, a secondary antibody was reacted with horseradish peroxidase-conjugated goat anti-rabbit IgG and horseradish peroxidase-conjugated goat anti-mouse IgG for 6 hours, and color was developed using an ECL chemiluminescence system (Amersham, Gaithersberg, Mass.).
(§5) Further, the degree of apoptosis was observed by confirming the changes in expression of cleaved caspase-3 (CC3) which is an active-type caspase-3 during apoptosis, and first, the C4-2 and PC3 cells cultured by the method in Example 1-2 were plated onto a 6-well plate, and then cultured during 12 hr. And then the cells were treated with 30 μM THA or 5 nM BI2536 for 48 hours. Thereafter, the changes in expression of cleaved caspase-3 (CC3) were observed by the immunochemical analysis method in Example 1-3.

[6] = test system: C4-2 cells; assay: as above; conditions: for induction of apoptosis: 30 μM THA or 5 nM BI2536, 48 hours
Experimental: as §4, §5

[7] = test system: PC3 cells; assay: Real-time apoptosis analysis (caspase-3/7 fluorescence substrate); conditions: 30 μM THA, 48 hours
Experimental: (§6) In order to measure apoptosis, cells were plated onto a 96-well dish (5×10^3 cells/well). The INCUCYTE™ ZOOM 96-well Caspase-3/7 apoptosis assay reagent (Essen Bioscience, Ann Arbor, Mich., USA) was pretreated for 3 hours, a drug was treated, and then the fluorescence expression level was measured at 4-hour intervals using an INCUCYTE™ ZOOM Live Cell Analysis System (Essen Bioscience, Ann Arbor, Mich., USA).

[8] = test system: C4-2 cells; assay: as above; conditions: 30 μM THA, 48 hours
Experimental: as §6

SMILES | cell proliferation inhibitory effect [1] | cell proliferation inhibitory activity [2] | cell proliferation inhibitory effect [3] | PHH3-positive cells (M phase marker) compared to the control [4] | cell cycle progression [4] | induction of apoptosis [5] | induction of apoptosis [6] | apoptotic index (caspase-3/7 activity) [7] | apoptotic index (caspase-3/7 activity) [8] | expression level of cleaved caspase-3 ([5]; 30 μM THA, 48 hours) | expression level of cleaved caspase-3 ([6]; 30 μM THA, 48 hours)
O=c1c(O)cccc2cc(O)c(O)c(O)c12 [Purpurogallin, purpurogallin, reference compound] | limited cell proliferation inhibitory activity | limited cell proliferation inhibitory activity | a cell growth inhibitory effect that appeared to be non-selective only at a concentration of 100 uM |  |  |  |  |  |  |  | 
CC[C@@H]1C(=O)N(C)c2cnc(Nc3ccc(C(=O)NC4CCN(C)CC4)cc3OC)nc2N1C1CCCC1 [BI2536, reference compound] | selectively inhibits cell proliferation |  | selectively inhibits cell proliferation | a significant increase | inhibition of G2/M phase progression is induced | apoptosis is effectively induced | apoptosis is effectively induced |  |  |  | 
CC(=O)c1c(O)cc(O)cc1O [THA, 2,4,6-trihydroxyacetophenone] | the same cell proliferation inhibitory effects as BI2536; also recorded: selectively inhibits cell proliferation |  | the same cell proliferation inhibitory effects as BI2536; also recorded: selectively inhibits cell proliferation | a significant increase | selectively blocked cell cycle progression at the G2/M phase | apoptosis is effectively induced | apoptosis is effectively induced | significantly increased the apoptotic index | significantly increased the apoptotic index | increased | increased
